Reference: patent US12517131B2, “Methods for labeling eukaryotic cells from a multicellular organism as well as for treating and/or diagnosing a cancer using modified monosaccharide compounds” (DIAMIDEX, priority 2019, dated 2026)

What was measured:
Experiment in all cases: Comparison of labeling of Ara-N3 and KDO-N3
Type in all cases: cell-based, human
Conditions in all cases: same conditions as in example 2
Raw = system: Raw
HeLa = system: HeLa
Macrophages = system: Macrophages

Measured: labelling of cells (fluorescence intensity)

[N-]=[N+]=NC[C@@H](O)[C@@H](O)[C@H](O)[C@H](O)CC(=O)C(=O)O [KDO-N3, 8-azido-3,8-dideoxy-D-manno-octulosonic acid]
not labelled: all assays above
